Source: PubChem BioAssay AID330 (DTP/NCI, 2004)
Where “and” joins values, the source holds several entries; their conditions need not be identical. Equal values may be shown once. Inconclusive results and toxic doses are left out. Rule for the calls: active = survival T/C of 150% or more; inactive = T/C below 125% in these data.

System: P388 leukemia ip, CD2F1 mice, survival T/C
Assay: NCI In Vivo Anticancer Drug Screen. Data for tumor model P388 Leukemia (intraperitoneal) in CD2F1 (CDF1) mice
Details: endpoint: median survival time, higher = longer survival
Procedure, shortened: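 Mice carrying the transplanted tumor received test compound or vehicle. Survival was recorded in each group, and the value is the treated-group measurement divided by that of the vehicle-treated control group.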

[1] = dose: 100.0 mg/kg/injection, schedule: Q04DX003 (ip), vehicle: Klucel (hydroxypropylcellulose) (HPC)
[2] = dose: 200.0 mg/kg/injection, schedule: Q04DX003 (ip), vehicle: Klucel (hydroxypropylcellulose) (HPC)
[3] = dose: 60.0 mg/kg/injection, schedule: Q01DX005 (ip), vehicle: saline with Tween-80
[4] = dose: 120.0 mg/kg/injection, schedule: Q01DX005 (ip), vehicle: saline with Tween-80
[5] = dose: 240.0 mg/kg/injection, schedule: Q01DX005 (ip), vehicle: saline with Tween-80
[6] = dose: 50.0 mg/kg/injection, schedule: Q01DX009 (ip), vehicle: Klucel (hydroxypropylcellulose) (HPC)
[7] = dose: 50.0 mg/kg/injection, schedule: Q01DX005 (ip), vehicle: Klucel (hydroxypropylcellulose) (HPC)
[8] = dose: 100.0 mg/kg/injection, schedule: Q01DX005 (ip), vehicle: Klucel (hydroxypropylcellulose) (HPC)
[9] = dose: 200.0 mg/kg/injection, schedule: Q01DX005 (ip), vehicle: Klucel (hydroxypropylcellulose) (HPC)
[10] = dose: 50.0 mg/kg/injection, schedule: Q01DX009 (ip), vehicle: saline
[11] = dose: 100.0 mg/kg/injection, schedule: Q01DX009 (ip), vehicle: saline
[12] = dose: 200.0 mg/kg/injection, schedule: Q01DX009 (ip), vehicle: saline

Measured: T/C

COC(=O)Nc1cnc(C(=O)O)c(C)c1-c1ccc(OC)c(OC)c1OCc1ccccc1
inactive: dose: 12.5 mg/kg/injection, schedule: Q01DX009 (ip), vehicle: other 97 % of control | dose: 25.0 mg/kg/injection, schedule: Q01DX009 (ip), vehicle: other 100 % of control | dose: 50.0 mg/kg/injection, schedule: Q01DX009 (ip), vehicle: other 102 % of control | dose: 100.0 mg/kg/injection, schedule: Q01DX009 (ip), vehicle: other 101 % of control | dose: 200.0 mg/kg/injection, schedule: Q01DX009 (ip), vehicle: other 103 % of control

CC(C)OC(=O)c1ccc(=O)oc1
inactive: [1] 105 % of control | [2] 99 % of control | dose: 400.0 mg/kg/injection, schedule: Q04DX003 (ip), vehicle: Klucel (hydroxypropylcellulose) (HPC) 110 % of control

Nc1ncnc2c1c(-c1ccc(Cl)cc1)cn2-c1ccccc1
inactive: [3] 100 % of control | [4] 96 % of control | [5] 90 % of control

CC1=C[P+](c2ccccc2)(c2ccccc2)c2ccccc2O1
inactive: dose: 1.56 mg/kg/injection, schedule: Q01DX005 (ip), vehicle: Klucel (hydroxypropylcellulose) (HPC) 96 % of control | dose: 3.12 mg/kg/injection, schedule: Q01DX005 (ip), vehicle: Klucel (hydroxypropylcellulose) (HPC) 109 % of control | dose: 6.25 mg/kg/injection, schedule: Q01DX005 (ip), vehicle: Klucel (hydroxypropylcellulose) (HPC) 110 % of control

O=C(O)/C(=C/c1cccs1)c1ccc(F)cc1
inactive: [3] 110 % of control | [4] 102 % of control | [5] 104 % of control

C1=C2COCOC3CCN(C1)C23 (stereo not given)
inactive: dose: 34.32 mg/kg/injection, schedule: Q01DX005 (ip), vehicle: saline 101 % of control | dose: 68.64 mg/kg/injection, schedule: Q01DX005 (ip), vehicle: saline 107 % of control | dose: 137.28 mg/kg/injection, schedule: Q01DX005 (ip), vehicle: saline 108 % of control

CCCCC/C(=C/C=C/c1ccc(Cl)cc1)CN(C)C
inactive: [6] 111 % of control | dose: 100.0 mg/kg/injection, schedule: Q01DX009 (ip), vehicle: Klucel (hydroxypropylcellulose) (HPC) 110 % of control

O=[N+]([O-])c1ccc(C(Nc2nncs2)Nc2nncs2)cc1
inactive: [7] 100 % of control | [8] 103 % of control | [9] 119 % of control

O=C(N/N=C/c1ccccc1Cl)C(=O)Nc1cccc(C(F)(F)F)c1
inactive: [7] 95 % of control | [8] 96 % of control | [9] 99 % of control

CC(C(=O)c1ccc(Cl)cc1)c1ccccc1 (stereo not given)
inactive: [10] 96 % of control | [11] 105 % of control | [12] 99 % of control

O=C(/C=C/c1ccc(Cl)c(Cl)c1)c1ccccc1
inactive: dose: 200.0 mg/kg/injection, schedule: Q01DX009 (ip), vehicle: saline with Tween-80 100 % of control

O=Cc1cccc2[nH]ccc12
inactive: [7] 102 % of control | [8] 99 % of control | [9] 96 % of control

CCOC(=O)CC/C(=C/c1cccc(OC)c1)[N+](=O)[O-]
inactive: dose: 50.0 mg/kg/injection, schedule: Q01DX001 (ip), vehicle: Klucel (hydroxypropylcellulose) (HPC) 105 % of control | dose: 100.0 mg/kg/injection, schedule: Q01DX001 (ip), vehicle: Klucel (hydroxypropylcellulose) (HPC) 107 % of control | dose: 200.0 mg/kg/injection, schedule: Q01DX001 (ip), vehicle: Klucel (hydroxypropylcellulose) (HPC) 107 % of control

O=C(O)C1=C(C(=O)Nc2ccc(NC(=O)C3=C(C(=O)O)CCC3)cc2)CCC1
inactive: dose: 12.5 mg/kg/injection, schedule: Q01DX009 (ip), vehicle: distilled water + Tween-80 93 % of control | dose: 25.0 mg/kg/injection, schedule: Q01DX009 (ip), vehicle: distilled water + Tween-80 98 % of control | dose: 50.0 mg/kg/injection, schedule: Q01DX009 (ip), vehicle: distilled water + Tween-80 97 % of control | dose: 100.0 mg/kg/injection, schedule: Q01DX009 (ip), vehicle: distilled water + Tween-80 105 % of control | dose: 200.0 mg/kg/injection, schedule: Q01DX009 (ip), vehicle: distilled water + Tween-80 115 % of control

CCCCCCC(=O)CC(SCCN)c1ccccc1Cl (stereo not given)
inactive: dose: 3.75 mg/kg/injection, schedule: Q01DX005 (ip), vehicle: saline 100 % of control | dose: 7.5 mg/kg/injection, schedule: Q01DX005 (ip), vehicle: saline 96 % of control | dose: 15.0 mg/kg/injection, schedule: Q01DX005 (ip), vehicle: saline 97 % of control | dose: 30.0 mg/kg/injection, schedule: Q01DX005 (ip), vehicle: saline 99 % of control

O=C1C[C@@H](c2ccccc2)NCCCCN(O)CCCN1
inactive: dose: 25.0 mg/kg/injection, schedule: Q01DX005 (ip), vehicle: saline 106 % of control | dose: 50.0 mg/kg/injection, schedule: Q01DX005 (ip), vehicle: saline 97 % of control | dose: 100.0 mg/kg/injection, schedule: Q01DX005 (ip), vehicle: saline 100 % of control

CCOC(=O)c1cc(N(CCCl)CCCl)ccc1OC(=O)CC
inactive: dose: 50.0 mg/kg/injection, schedule: Q04DX003 (ip), vehicle: Klucel (hydroxypropylcellulose) (HPC) 100 % of control | [1] 100 % of control | [2] 97 % of control

CSC(=N/O)/C(=N\O)SC
inactive: dose: 12.5 mg/kg/injection, schedule: Q01DX009 (ip), vehicle: Klucel (hydroxypropylcellulose) (HPC) 107 % of control | dose: 25.0 mg/kg/injection, schedule: Q01DX009 (ip), vehicle: Klucel (hydroxypropylcellulose) (HPC) 99 % of control | [6] 100 % of control and 102 % of control | dose: 200.0 mg/kg/injection, schedule: Q01DX009 (ip), vehicle: Klucel (hydroxypropylcellulose) (HPC) 89 % of control

NNc1ccc(Cl)nn1
inactive: dose: 7.5 mg/kg/injection, schedule: Q01DX005 (ip), vehicle: saline with Tween-80 101 % of control | dose: 15.0 mg/kg/injection, schedule: Q01DX005 (ip), vehicle: saline with Tween-80 99 % of control

O=Cc1cc2ccc3ccccc3c2[nH]1
inactive: dose: 200.0 mg/kg/injection, schedule: Q01DX001 (ip), vehicle: saline with Tween-80 90 % of control

Clc1ccc(N2CCOCC2)nn1
inactive: [10] 104 % of control | [11] 88 % of control | [12] 100 % of control

CC(=O)Nc1c(Cl)nc2cc(N(C)C)ccc2c1Cl
inactive: dose: 60.0 mg/kg/injection, schedule: Q01DX005 (ip), vehicle: Klucel + Tween-80 97 % of control | dose: 120.0 mg/kg/injection, schedule: Q01DX005 (ip), vehicle: Klucel + Tween-80 96 % of control | dose: 240.0 mg/kg/injection, schedule: Q01DX005 (ip), vehicle: Klucel + Tween-80 97 % of control

CC12CCC(C(Br)C1=O)C2(C)CBr (stereo not given)
inactive: dose: 50.0 mg/kg/injection, schedule: Q01DX005 (ip), vehicle: saline with Tween-80 103 % of control | dose: 100.0 mg/kg/injection, schedule: Q01DX005 (ip), vehicle: saline with Tween-80 104 % of control | dose: 200.0 mg/kg/injection, schedule: Q01DX005 (ip), vehicle: saline with Tween-80 92 % of control

CN(C)c1ccc(/C=C/c2ccc3ccccc3[n+]2C)cc1
inactive: dose: 1.0 mg/kg/injection, schedule: Q01DX009 (ip), vehicle: saline sonified 123 % of control | dose: 1.5 mg/kg/injection, schedule: Q01DX009 (ip), vehicle: saline sonified 123 % of control | dose: 2.3 mg/kg/injection, schedule: Q01DX009 (ip), vehicle: saline sonified 119 % of control | dose: 6.25 mg/kg/injection, schedule: Q04DX003 (ip), vehicle: saline sonified 100 % of control | dose: 12.5 mg/kg/injection, schedule: Q04DX003 (ip), vehicle: saline sonified 109 % of control | dose: 25.0 mg/kg/injection, schedule: Q04DX003 (ip), vehicle: saline sonified 113 % of control
